Source: publication PMC6001238, “Iterative Chemical Engineering of Vancomycin Leads to Novel Vancomycin Analogs With a High in Vitro Therapeutic Index” (Frontiers in Microbiology, 2018)
≈ marks a conversion by molar mass, not a printed value.

Key:
E. faecalis VRE 37 = test: MIC, broth microdilution, vancomycin-resistant E. faecalis VRE 37 (VanA); type: cell-based, Enterococcus faecalis; details: for MIC: Enterococcus faecalis VRE 37 (vancomycin-resistant), read-out: MIC; for MIC-fold improvement vs. vancomycin: VRE 37, ratio of MIC of vancomycin and MIC of analogue
In short: (§1)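 CLSI broth microdilution; water and uninoculated-broth controls; one arm supplemented with vancomycin, final 10 μM, given with analogue or control antibiotic.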

[1] = test system: S. aureus VSSA (ATCC 6538); test: MIC, broth microdilution, vancomycin-sensitive S. aureus (VSSA/MSSA, ATCC 6538); type: cell-based, Staphylococcus aureus; details: for MIC: Staphylococcus aureus VSSA, read-out: MIC; for MIC-fold improvement vs. vancomycin: VSSA, ratio of MIC of vancomycin and MIC of analogue
In short: as §1

[2] = test system: L1210, CEM and HeLa cell lines; test: Cytostatic activity, average or summary over L1210, CEM and HeLa; type: cell-based; details: average of L1210, CEM and HeLa; read-out: Toxicity (IC50) Average
In short: (§2)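 Coulter counter cell counts after 37°C culture with compound; IC50 = concentration giving 50% growth inhibition vs negative control. Incubation: L1210 2 d, CEM 3 d, HeLa 4 d. Suspension density before mixing with an equal volume of dilution: 300,000–500,000 cells/mL.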

S. aureus VRSA = test: MIC, broth microdilution, vancomycin-resistant S. aureus (VRSA); type: cell-based, Staphylococcus aureus; details: for MIC: Staphylococcus aureus VRSA, read-out: MIC; for MIC-fold improvement vs. vancomycin: VRSA, ratio of MIC of vancomycin and MIC of analogue
In short: as §1

[3] = test system: human cervix carcinoma (HeLa) cells; test: Cytostatic activity, HeLa cell proliferation; type: cell-based; details: mean ± SD of three experiments; highest concentration tested 250 µM; 4 days; read-out: Toxicity (IC50) HeLa
In short: as §2

E. faecalis VRE 29 = test: MIC, broth microdilution, vancomycin-resistant E. faecalis VRE 29 (VanA); type: cell-based, Enterococcus faecalis; details: for MIC: Enterococcus faecalis VRE 29 (vancomycin-resistant), read-out: MIC; for MIC-fold improvement vs. vancomycin: VRE 29, ratio of MIC of vancomycin and MIC of analogue
In short: as §1

S. aureus VISA/HIP5827 = test: MIC, broth microdilution, vancomycin-intermediate S. aureus VISA HIP5827; type: cell-based, Staphylococcus aureus; details: for MIC: Staphylococcus aureus VISA/HIP5827, read-out: MIC; for MIC-fold improvement vs. vancomycin: VISA/HIP5827, ratio of MIC of vancomycin and MIC of analogue
In short: as §1

[4] = test system: human T-lymphocyte (CEM) cells; test: Cytostatic activity, CEM cell proliferation; type: cell-based; details: mean ± SD of three experiments; highest concentration tested 250 µM; 3 days; read-out: Toxicity (IC50) CEM
In short: as §2

[5] = test system: Murine leukemia (L1210) cells; test: Cytostatic activity, L1210 cell proliferation; type: cell-based; details: mean ± SD of three experiments; highest concentration tested 250 µM; 2 days; read-out: Toxicity (IC50) L1210
In short: as §2

E. faecalis VRE 53 = test: MIC, broth microdilution, vancomycin-resistant E. faecalis VRE 53 (VanA); type: cell-based, Enterococcus faecalis; details: for MIC: Enterococcus faecalis VRE 53 (vancomycin-resistant), read-out: MIC; for MIC-fold improvement vs. vancomycin: VRE 53, ratio of MIC of vancomycin and MIC of analogue
In short: as §1

E. faecalis VRE 6 = test: MIC, broth microdilution, vancomycin-resistant E. faecalis VRE 6 (VanA); type: cell-based, Enterococcus faecalis; details: for MIC: Enterococcus faecalis VRE 6 (vancomycin-resistant), read-out: MIC; for MIC-fold improvement vs. vancomycin: VRE 6, ratio of MIC of vancomycin and MIC of analogue
In short: as §1

MRSA KS89 = test: MIC, broth microdilution, MRSA KS89; type: cell-based, Staphylococcus aureus; details: for MIC-fold improvement vs. vancomycin: MRSA KS8, ratio of MIC of vancomycin and MIC of analogue; for MIC: Staphylococcus aureus MRSA KS8, read-out: MIC
In short: as §1

MRSA KS1 = test: MIC, broth microdilution, MRSA KS1; type: cell-based, Staphylococcus aureus; details: for MIC-fold improvement vs. vancomycin: MRSA KS1, ratio of MIC of vancomycin and MIC of analogue; for MIC: Staphylococcus aureus MRSA KS1, read-out: MIC
In short: as §1

MRSA KS2 = test: MIC, broth microdilution, MRSA KS2; type: cell-based, Staphylococcus aureus; details: for MIC-fold improvement vs. vancomycin: MRSA KS2, ratio of MIC of vancomycin and MIC of analogue; for MIC: Staphylococcus aureus MRSA KS2, read-out: MIC
In short: as §1

MRSA KS6 = test: MIC, broth microdilution, MRSA KS6; type: cell-based, Staphylococcus aureus; details: for MIC-fold improvement vs. vancomycin: MRSA KS6, ratio of MIC of vancomycin and MIC of analogue; for MIC: Staphylococcus aureus MRSA KS6, read-out: MIC
In short: as §1

E. faecalis VSE 1 = test: MIC, broth microdilution, vancomycin-sensitive E. faecalis (VSE 1); type: cell-based, Enterococcus faecalis; details: for MIC: Enterococcus faecalis VSE 1 (vancomycin-sensitive), read-out: MIC; for MIC-fold improvement vs. vancomycin: VSE 1, ratio of MIC of vancomycin and MIC of analogue
In short: as §1

## CNC(CC(C)C)C(=O)NC1C(=O)NC(CC(N)=O)C(=O)NC2C(=O)NC3C(=O)NC(C(=O)NC(C(=O)NCC(=O)Nc4ccc(C#CC5CC5)cc4)c4cc(O)cc(O)c4-c4cc3ccc4O)C(O)c3ccc(c(Cl)c3)Oc3cc2cc(c3OC2OC(CO)C(O)C(O)C2OC2CC(C)(N)C(O)C(C)O2)Oc2ccc(cc2Cl)C1O (centres unmarked) [Vanc-70]
E. faecalis VRE 37
  MIC: 6.25 µM (≈ 10.3 µg/mL)
  MIC-fold improvement vs. vancomycin: 64
[1]
  MIC: 0.78 µM (≈ 1.28 µg/mL)
  MIC-fold improvement vs. vancomycin: 1
[2]
  IC50: 155 µM
S. aureus VRSA
  MIC: 1.56 µM (≈ 2.57 µg/mL)
  MIC-fold improvement vs. vancomycin: 64
[3]
  IC50: 73 ± 10 µM
E. faecalis VRE 29
  MIC: 6.25 µM (≈ 10.3 µg/mL)
  MIC-fold improvement vs. vancomycin: 64
S. aureus VISA/HIP5827
  MIC: 0.78 µM (≈ 1.28 µg/mL)
  MIC-fold improvement vs. vancomycin: 8
[4]
  IC50: 143 ± 113 µM
[5]
  IC50: ≥ 250 µM
E. faecalis VRE 53
  MIC: 6.25 µM (≈ 10.3 µg/mL)
  MIC-fold improvement vs. vancomycin: 64
E. faecalis VRE 6
  MIC: 6.25 µM (≈ 10.3 µg/mL)
  MIC-fold improvement vs. vancomycin: 32
MRSA KS89
  MIC-fold improvement vs. vancomycin: 2
  MIC: 0.39 µM (≈ 0.642 µg/mL)
MRSA KS1
  MIC-fold improvement vs. vancomycin: 4
  MIC: 0.20 µM (≈ 0.329 µg/mL)
MRSA KS2
  MIC-fold improvement vs. vancomycin: 4
  MIC: 0.20 µM (≈ 0.329 µg/mL)
MRSA KS6
  MIC-fold improvement vs. vancomycin: 4
  MIC: 0.20 µM (≈ 0.329 µg/mL)
E. faecalis VSE 1
  MIC: 0.78 µM (≈ 1.28 µg/mL)
  MIC-fold improvement vs. vancomycin: 2

## CN[C@H](CC(C)C)C(=O)N[C@H]1C(=O)N[C@@H](CC(N)=O)C(=O)N[C@H]2C(=O)N[C@H]3C(=O)N[C@H](C(=O)N[C@H](C(=O)NCC(=O)Nc4ccc(NS(=O)(=O)c5ccc(Cl)cc5Cl)cc4)c4cc(O)cc(O)c4-c4cc3ccc4O)[C@H](O)c3ccc(c(Cl)c3)Oc3cc2cc(c3O[C@@H]2O[C@H](CO)[C@@H](O)[C@H](O)[C@H]2O[C@H]2C[C@](C)(N)[C@H](O)[C@H](C)O2)Oc2ccc(cc2Cl)[C@H]1O [Vanc-61]
E. faecalis VRE 37
  MIC: 12.5 µM (≈ 22.6 µg/mL)
[1]
  MIC: 0.20 µM (≈ 0.361 µg/mL)
  MIC-fold improvement vs. vancomycin: 4
[2]
  IC50: 196 µM
S. aureus VRSA
  MIC: 0.39 µM (≈ 0.704 µg/mL)
  MIC-fold improvement vs. vancomycin: 256
[3]
  IC50: 87 ± 37 µM
E. faecalis VRE 29
  MIC: 6.25 µM (≈ 11.3 µg/mL)
  MIC-fold improvement vs. vancomycin: 64
S. aureus VISA/HIP5827
  MIC: 0.78 µM (≈ 1.41 µg/mL)
  MIC-fold improvement vs. vancomycin: 8
[4]
  IC50: ≥ 250 µM
[5]
  IC50: ≥ 250 µM
E. faecalis VRE 53
  MIC: 6.25 µM (≈ 11.3 µg/mL)
  MIC-fold improvement vs. vancomycin: 64
E. faecalis VRE 6
  MIC: 3.13 µM (≈ 5.65 µg/mL)
  MIC-fold improvement vs. vancomycin: 64
MRSA KS89
  MIC-fold improvement vs. vancomycin: 2
  MIC: 0.39 µM (≈ 0.704 µg/mL)
MRSA KS1
  MIC-fold improvement vs. vancomycin: 2
  MIC: 0.39 µM (≈ 0.704 µg/mL)
MRSA KS2
  MIC-fold improvement vs. vancomycin: 4
  MIC: 0.20 µM (≈ 0.361 µg/mL)
MRSA KS6
  MIC-fold improvement vs. vancomycin: 2
  MIC: 0.39 µM (≈ 0.704 µg/mL)
E. faecalis VSE 1
  MIC: 0.39 µM (≈ 0.704 µg/mL)
  MIC-fold improvement vs. vancomycin: 4

## CN[C@H](CC(C)C)C(=O)N[C@H]1C(=O)N[C@@H](CC(N)=O)C(=O)N[C@H]2C(=O)N[C@H]3C(=O)N[C@H](C(=O)N[C@H](C(=O)NCC(=O)Nc4ccc(-c5cn(-c6ccccc6)nn5)cc4)c4cc(O)cc(O)c4-c4cc3ccc4O)[C@H](O)c3ccc(c(Cl)c3)Oc3cc2cc(c3O[C@@H]2O[C@H](CO)[C@@H](O)[C@H](O)[C@H]2O[C@H]2C[C@](C)(N)[C@H](O)[C@H](C)O2)Oc2ccc(cc2Cl)[C@H]1O [Vanc-77]
E. faecalis VRE 37
  MIC: 6.25 µM (≈ 10.8 µg/mL)
  MIC-fold improvement vs. vancomycin: 64
[1]
  MIC: 0.39 µM (≈ 0.673 µg/mL)
  MIC-fold improvement vs. vancomycin: 2
[2]
  IC50: 92 µM
S. aureus VRSA
  MIC: 0.78 µM (≈ 1.35 µg/mL)
  MIC-fold improvement vs. vancomycin: 128
[3]
  IC50: 58 ± 7 µM
E. faecalis VRE 29
  MIC: 6.25 µM (≈ 10.8 µg/mL)
  MIC-fold improvement vs. vancomycin: 64
S. aureus VISA/HIP5827
  MIC: 0.78 µM (≈ 1.35 µg/mL)
  MIC-fold improvement vs. vancomycin: 8
[4]
  IC50: 26 ± 1 µM
[5]
  IC50: 192 ± 101 µM
E. faecalis VRE 53
  MIC: 6.25 µM (≈ 10.8 µg/mL)
  MIC-fold improvement vs. vancomycin: 64
E. faecalis VRE 6
  MIC: 1.56 µM (≈ 2.69 µg/mL)
  MIC-fold improvement vs. vancomycin: 128
MRSA KS89
  MIC-fold improvement vs. vancomycin: 4
  MIC: 0.20 µM (≈ 0.345 µg/mL)
MRSA KS1
  MIC-fold improvement vs. vancomycin: >8
  MIC: <0.10 µM
MRSA KS2
  MIC-fold improvement vs. vancomycin: 4
  MIC: 0.20 µM (≈ 0.345 µg/mL)
MRSA KS6
  MIC-fold improvement vs. vancomycin: 4
  MIC: 0.20 µM (≈ 0.345 µg/mL)
E. faecalis VSE 1
  MIC: 0.39 µM (≈ 0.673 µg/mL)
  MIC-fold improvement vs. vancomycin: 4

## CN[C@H](CC(C)C)C(=O)N[C@H]1C(=O)N[C@@H](CC(N)=O)C(=O)N[C@H]2C(=O)N[C@H]3C(=O)N[C@H](C(=O)N[C@H](C(=O)NCCNC(=O)/C=C/c4ccc(Cl)cc4Cl)c4cc(O)cc(O)c4-c4cc3ccc4O)[C@H](O)c3ccc(c(Cl)c3)Oc3cc2cc(c3O[C@@H]2O[C@H](CO)[C@@H](O)[C@H](O)[C@H]2O[C@H]2C[C@](C)(N)[C@H](O)[C@H](C)O2)Oc2ccc(cc2Cl)[C@H]1O [Vanc-51]
E. faecalis VRE 37
  MIC: 12.5 µM (≈ 21.1 µg/mL)
[1]
  MIC: 0.39 µM (≈ 0.659 µg/mL)
  MIC-fold improvement vs. vancomycin: 2
[2]
  IC50: 89 µM
S. aureus VRSA
  MIC: 0.39 µM (≈ 0.659 µg/mL)
  MIC-fold improvement vs. vancomycin: 256
[3]
  IC50: 106 ± 21 µM
E. faecalis VRE 29
  MIC: 12.5 µM (≈ 21.1 µg/mL)
  MIC-fold improvement vs. vancomycin: 32
S. aureus VISA/HIP5827
  MIC: 0.78 µM (≈ 1.32 µg/mL)
  MIC-fold improvement vs. vancomycin: 8
[4]
  IC50: 82 ± 21 µM
[5]
  IC50: 80 ± 13 µM
E. faecalis VRE 53
  MIC: 12.5 µM (≈ 21.1 µg/mL)
  MIC-fold improvement vs. vancomycin: 32
E. faecalis VRE 6
  MIC: 6.25 µM (≈ 10.6 µg/mL)
  MIC-fold improvement vs. vancomycin: 32
MRSA KS89
  MIC-fold improvement vs. vancomycin: 4
  MIC: 0.20 µM (≈ 0.338 µg/mL)
MRSA KS1
  MIC-fold improvement vs. vancomycin: 4
  MIC: 0.20 µM (≈ 0.338 µg/mL)
MRSA KS2
  MIC-fold improvement vs. vancomycin: 4
  MIC: 0.20 µM (≈ 0.338 µg/mL)
MRSA KS6
  MIC-fold improvement vs. vancomycin: 4
  MIC: 0.20 µM (≈ 0.338 µg/mL)
E. faecalis VSE 1
  MIC: 0.39 µM (≈ 0.659 µg/mL)
  MIC-fold improvement vs. vancomycin: 4
